Measured values published in the NIST ThermoML archive (doi:10.1016/j.fluid.2016.08.014).

How the values were obtained:
[1] = refractive index (Na D-line) (dimensionless); conditions: 298.15 K; 101.33 kPa; Liquid; Standard Abbe refractometry
[2] = Liquid, Vibrating tube method

CN(C)C=O [dimethylformamide]
Conditions	refractive index
[1]	1.42844

[2]
Conditions	mass density [kg/m3]
293.15 K, 100 kPa	949
293.15 K, 2500 kPa	950
293.15 K, 5100 kPa	952
293.15 K, 10100 kPa	955
293.15 K, 15100 kPa	958
293.15 K, 20100 kPa	960
293.15 K, 25000 kPa	963
293.15 K, 30300 kPa	966
298.15 K, 101.33 kPa	943.978
303.15 K, 100 kPa	939
303.15 K, 2500 kPa	941
303.15 K, 5100 kPa	943
303.15 K, 10000 kPa	940
303.15 K, 15100 kPa	949
303.15 K, 20100 kPa	951
303.15 K, 25000 kPa	954
303.15 K, 30100 kPa	957
313.15 K, 100 kPa	930
313.15 K, 2600 kPa	931
313.15 K, 5100 kPa	933
313.15 K, 10000 kPa	936
313.15 K, 15100 kPa	939
313.15 K, 20100 kPa	942
313.15 K, 25000 kPa	945
313.15 K, 30100 kPa	948
323.15 K, 100 kPa	920
323.15 K, 2500 kPa	922
323.15 K, 5100 kPa	924
323.15 K, 10000 kPa	927
323.15 K, 15100 kPa	930
323.15 K, 20100 kPa	934
323.15 K, 25100 kPa	937
323.15 K, 30400 kPa	940
333.15 K, 200 kPa	910
333.15 K, 2600 kPa	912
333.15 K, 5000 kPa	914
333.15 K, 10200 kPa	918
333.15 K, 15000 kPa	921
333.15 K, 20300 kPa	925
333.15 K, 25100 kPa	928
333.15 K, 30200 kPa	931
343.15 K, 200 kPa	900
343.15 K, 2500 kPa	903
343.15 K, 5200 kPa	905
343.15 K, 10000 kPa	908
343.15 K, 15000 kPa	912
343.15 K, 20100 kPa	916
343.15 K, 25100 kPa	919
343.15 K, 30400 kPa	922
353.15 K, 200 kPa	890
353.15 K, 2500 kPa	893
353.15 K, 5100 kPa	895
353.15 K, 10100 kPa	899
353.15 K, 15000 kPa	903
353.15 K, 20100 kPa	907
353.15 K, 25100 kPa	910
353.15 K, 30200 kPa	914
363.15 K, 200 kPa	881
363.15 K, 2600 kPa	883
363.15 K, 5000 kPa	885
363.15 K, 10100 kPa	890
363.15 K, 15100 kPa	894
363.15 K, 20100 kPa	897
363.15 K, 25100 kPa	901
363.15 K, 30100 kPa	905
373.15 K, 100 kPa	871
373.15 K, 2600 kPa	873
373.15 K, 5000 kPa	876
373.15 K, 10100 kPa	880
373.15 K, 15300 kPa	885
373.15 K, 20100 kPa	888
373.15 K, 25100 kPa	892
373.15 K, 30100 kPa	896
383.15 K, 100 kPa	860
383.15 K, 2500 kPa	863
383.15 K, 5100 kPa	866
383.15 K, 10000 kPa	870
383.15 K, 15100 kPa	875
383.15 K, 20200 kPa	880
383.15 K, 25100 kPa	884
383.15 K, 30300 kPa	888
393.15 K, 100 kPa	851
393.15 K, 2600 kPa	853
393.15 K, 5200 kPa	856
393.15 K, 10000 kPa	861
393.15 K, 15000 kPa	866
393.15 K, 20100 kPa	870
393.15 K, 25100 kPa	875
393.15 K, 30400 kPa	879
403.15 K, 100 kPa	840
403.15 K, 2600 kPa	843
403.15 K, 5000 kPa	846
403.15 K, 10100 kPa	851
403.15 K, 15100 kPa	856
403.15 K, 20100 kPa	861
403.15 K, 25100 kPa	866
403.15 K, 30300 kPa	870
413.15 K, 200 kPa	830
413.15 K, 2500 kPa	833
413.15 K, 5000 kPa	836
413.15 K, 10200 kPa	842
413.15 K, 14900 kPa	847
413.15 K, 20000 kPa	852
413.15 K, 25200 kPa	857
413.15 K, 30000 kPa	861
